Results: publication PMC11121628, “Regulation of T Lymphocyte Functions through Calcium Signaling Modulation by Nootkatone” (International Journal of Molecular Sciences, 2024)

What was measured:
Type in all cases: cell-based
KCa3.1 = biological target: T1, KCa3.1 (Homo sapiens, UniProt O15554); assay: whole-cell patch clamp of IKCa3.[…] in stable HEK293T cells; settings: HEK-293T
T1 construct: gene KCNN4

ORAI1 (CRAC channel) = biological target: T2, ORAI1 (CRAC channel) (Homo sapiens, UniProt Q96D31); assay: whole-cell patch clamp of ICRAC in transfected HEK293T cells
T2 construct: human ORAI1 (hORAI1) co-transfected with hSTIM1 in HEK293T cells; with STIM1

KV1.3 = biological target: T3, KV1.3 (Homo sapiens, UniProt P22001); assay: whole-cell patch clamp of IKV1.[…] in Jurkat T cells
T3 construct: gene KCNA3; KV1.3 current in Jurkat T cells
T3 sequence (P22001 whole entry): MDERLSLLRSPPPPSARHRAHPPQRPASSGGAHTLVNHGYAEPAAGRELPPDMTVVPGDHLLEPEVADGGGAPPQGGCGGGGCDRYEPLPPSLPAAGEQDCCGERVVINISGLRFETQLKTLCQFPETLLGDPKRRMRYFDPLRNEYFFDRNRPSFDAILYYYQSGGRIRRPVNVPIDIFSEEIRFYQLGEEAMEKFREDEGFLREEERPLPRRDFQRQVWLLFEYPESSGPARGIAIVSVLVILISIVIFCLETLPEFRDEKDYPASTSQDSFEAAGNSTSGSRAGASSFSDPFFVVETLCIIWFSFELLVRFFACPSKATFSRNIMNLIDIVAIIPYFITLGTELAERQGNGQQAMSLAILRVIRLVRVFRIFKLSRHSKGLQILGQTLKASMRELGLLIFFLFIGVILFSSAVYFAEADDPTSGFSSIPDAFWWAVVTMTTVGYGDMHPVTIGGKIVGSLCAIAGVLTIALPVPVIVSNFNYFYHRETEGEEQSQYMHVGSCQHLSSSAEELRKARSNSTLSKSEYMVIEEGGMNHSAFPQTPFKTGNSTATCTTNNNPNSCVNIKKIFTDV

T2 sequence (Q96D31 whole entry): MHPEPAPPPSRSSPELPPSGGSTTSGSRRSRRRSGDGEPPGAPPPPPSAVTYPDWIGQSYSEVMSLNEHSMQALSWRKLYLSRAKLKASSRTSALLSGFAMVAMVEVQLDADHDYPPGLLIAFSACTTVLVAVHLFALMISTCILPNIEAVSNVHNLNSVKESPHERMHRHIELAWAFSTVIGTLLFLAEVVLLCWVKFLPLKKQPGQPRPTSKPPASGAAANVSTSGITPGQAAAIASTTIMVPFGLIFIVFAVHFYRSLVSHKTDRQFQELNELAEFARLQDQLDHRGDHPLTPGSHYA
T2 sequence (Q13586 23-685, further chain): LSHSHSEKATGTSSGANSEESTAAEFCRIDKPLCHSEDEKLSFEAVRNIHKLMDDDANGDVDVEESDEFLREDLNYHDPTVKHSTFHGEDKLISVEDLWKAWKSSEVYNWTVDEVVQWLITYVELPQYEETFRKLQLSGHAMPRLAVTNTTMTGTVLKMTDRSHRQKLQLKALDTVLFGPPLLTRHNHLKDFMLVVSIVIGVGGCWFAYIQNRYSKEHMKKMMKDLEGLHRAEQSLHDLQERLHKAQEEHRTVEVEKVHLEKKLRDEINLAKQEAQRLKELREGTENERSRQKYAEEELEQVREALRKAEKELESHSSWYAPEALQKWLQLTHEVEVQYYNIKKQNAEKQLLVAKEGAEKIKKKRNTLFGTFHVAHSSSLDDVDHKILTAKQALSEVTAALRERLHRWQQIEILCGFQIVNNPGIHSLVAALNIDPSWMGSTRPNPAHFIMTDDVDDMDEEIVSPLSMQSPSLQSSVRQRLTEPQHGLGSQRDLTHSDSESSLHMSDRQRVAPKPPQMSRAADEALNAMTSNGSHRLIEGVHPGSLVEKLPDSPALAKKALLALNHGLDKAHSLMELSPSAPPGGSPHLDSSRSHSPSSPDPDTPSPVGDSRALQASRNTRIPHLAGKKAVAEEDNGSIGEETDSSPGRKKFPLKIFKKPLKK
T1 sequence (O15554 whole entry): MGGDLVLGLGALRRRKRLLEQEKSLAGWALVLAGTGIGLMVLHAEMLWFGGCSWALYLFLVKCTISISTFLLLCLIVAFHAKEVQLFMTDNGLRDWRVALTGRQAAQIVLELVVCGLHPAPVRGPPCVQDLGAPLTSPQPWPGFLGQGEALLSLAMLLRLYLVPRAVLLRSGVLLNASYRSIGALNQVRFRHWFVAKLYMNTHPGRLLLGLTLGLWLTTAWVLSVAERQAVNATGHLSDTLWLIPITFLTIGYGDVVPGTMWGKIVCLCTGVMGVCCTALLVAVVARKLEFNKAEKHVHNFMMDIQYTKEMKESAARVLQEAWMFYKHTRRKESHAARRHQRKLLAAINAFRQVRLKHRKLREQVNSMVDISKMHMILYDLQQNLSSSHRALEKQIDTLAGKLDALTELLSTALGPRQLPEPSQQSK

`C=C(C)[C@@H]1CCC2=CC(=O)C[C@@H](C)[C@]2(C)C1` [nootkatone] gave an inhibition at 100 µM (KCa3.1) of about 20%, an IC50 (ORAI1 (CRAC channel)) of about 12.6 µM and an IC50 (KV1.3) of 10.8 µM.
